According to ChEMBL document CHEMBL1151691, “Structure and biological activity of novel FN analogs as flowering inducers” (Bioorg Med Chem, 2008):
Active and inactive are the calls of the source. The rule behind the calls is not given here.

Test system: Lemna aequinoctialis
Experiment: Induction of flowering in Lemna paucicostata 151 after 10 days
Type: functional, organism-based

Row | SMILES | Activity
1 | CCCCC[C@@H]1[C@H](CC(=O)CCCCCCCCC(=O)O)O[C@]2(O)CC13C(=CC2=O)NC[C@@H]3O | inactive
2 | CC/C=C\C[C@@H]1[C@H](CC(=O)CCCCCCCCC(=O)O)O[C@]2(O)CC13C(=CC2=O)NC[C@@H]3O | Active
3 | CC/C=C\C[C@@H]1[C@H](CC(=O)[C@H](O)CCCCCCCC(=O)OC)O[C@]2(O)CC13C(=CC2=O)NC[C@@H]3O | Active
4 | CC/C=C\C[C@@H]1[C@H](CC(=O)[C@@H](O)CCCCCCCC(=O)O)O[C@]2(O)CC13C(=CC2=O)N(C)C[C@@H]3O | Active
5 | CC/C=C\C[C@@H]1[C@H](CC(=O)[C@H](O)CCCCCCCC(=O)O)O[C@]2(O)CC13C(=CC2=O)N(C)C[C@@H]3O | Active
6 | CCCCC[C@@H]1[C@H](CC(=O)C(O)CCCCCCCC(=O)O)O[C@]2(O)CC13C(=CC2=O)NC[C@@H]3O (some centres not stated) | Active
7 | CC/C=C\C[C@@H]1[C@H](CC(=O)[C@@H](O)CCCCCCCC(=O)OC)O[C@]2(O)CC13C(=CC2=O)NC[C@@H]3O | Active
